In patent publication US8604048B2, “Pyridocarbazole type compounds and applications thereof” (Centre National de la Recherche Scientifique, priority 2009, dated 2013):

Key:
786-O cells = test: Cell growth test (MTT), 786-O; assay type: cell-based; conditions: Homo sapiens, 786-0, MTT test after 48 h, read-out: IC50 (concentration necessary to inhibit 50% of cell growth)
Experimental: The cell growth tests are carried out in transparent 96-well microplates (Greiner) after having seeded 100 μl/well of a cell solution having 2·10^5 cells/ml to 5·10^5 cells/ml (depending on the cell lines). After incubating for 24 h at 37° C. with 5% CO2, the culture medium is removed and replaced with solutions of the molecule to be tested at various concentrations. The cells are incubated with these molecules for an additional 48 h at 37° C. with 5% CO2. After elimination of the medium, the cells are washed with blank RPMI (Gibco, Invitrogen) then incubated with 3-(4,5-dimethylthiazol-2-yl)-2,5-diphenyltetrazolium bromide or MTT (0.5 mg/ml final concentration) for 4 h at 37° C. with 5% CO2. MTT (Sigma Aldrich) makes it possible to estimate the viability of the cells by measuring the activity of a mitochondrial enzyme. Indeed, in living cells, mitochondrial dehydrogenases are capable of cleaving the tetrazolium ring, thus leading to the formation of formazan crystals that are insoluble in an aqueous medium. These crystals are dissolved with the addition of a solubilizing solution (isopropanol, 10% Triton X100, 0.1 N HCl). After stirring, the absorbance is measured at 570 nm using the FLUOstar OPTIMA microplate reader. […]
The viability of the cells was evaluated using an MTT test after 48 h of exposure with various concentrations of molecules (from 100 μM to 0.001 μM). […]

recombinant human LIMK1 = molecular target: T1, recombinant human LIMK1 (Homo sapiens, UniProt P53667); test: Radiometric LIMK1 kinase assay; assay type: biochemical; conditions: Lineweaver-Burk plots
T1 construct: 6His (N); purchased Millipore 14-656
Experimental: Compounds were tested in a radiometric LIMK1 assay performed in a final volume of 25 μl containing 3 μl of compound or equivalent amount of DMSO as control, 2 μl (1 ng) of N-terminal 6His-tagged recombinant human LIMK1 (Millipore #14-656, in 20 mM MOPS pH=7.0, 1 mM EDTA, 0.01% NP-40, 5% glycerol, 0.1% β-mercaptoethanol, 1 mg·ml^−1 Bovine Serum Albumin) and a mixture containing […] pH=7.0, 200 μM EDTA, 70 μM of recombinant GST-cofilin 1, 25 mM Mg(OAc)2, and 360 μM [γ-^32P]-ATP. Assays were performed at 30° C. for 10 minutes before termination by the addition of 5 μl of 3% orthophosphoric acid. 25 μL aliquots were then spotted onto P80 filter square (4 cm^2). Filters were rinsed three times for 5 minutes by 0.5% orthophosphoric acid at 4° C. and transferred to scintillation vial. Following addition of scintillation cocktail (Ultima Gold, Perkin-Elmer), ^32P incorporation was measured using a scintillation counter.
FIG. 10 illustrates the inhibition of LIMK1 by Compound 1 (H06). Radiometric LIMK1 kinase assay was performed as described in Example 2; the following conditions were tested: without LIMK1 (‘−LIMK1’), with LIMK1 (1 ng) in presence of 5 μM H06 (‘5 μM H06’), 25 μM H06 (‘25 μM H06’) or with equivalent amount of DMSO (‘Ctl’).
Error bars represent standard error mean. […]

purified tubulin = test: In vitro assembly of purified tubulin; assay type: biochemical; conditions: tubulin 1 mg/ml; Compound 1 at 25, 50, 100 μM
Experimental: FIG. 5 compares the effects of the Compound 1 of the invention with the effect of paclitaxel (Taxol®) on the assembly of the tubulin purified in vitro. Purified tubulin (1 mg/ml) is incubated in PEM buffer in the presence of GTP (1 mM), MgCl2 (5 mM), DAPI (10 μM) at 37° C. The effect of Compound 1 of the invention at various concentrations (×25 μM, ⊚ 50 μM and Δ 100 μM) is compared to that of paclitaxel (Taxol®) (▪) and of DMSO ( ? );
In order to know whether Compound 1 of the invention exerts its stabilizing effect via a direct action on tubulin, such as paclitaxel does, or by means an effector, its effect on the in vitro assembly of tubulin in microtubules has been analyzed. The first experiments were carried out on purified tubulin (1 mg/ml).

[1] = system: mitochondria of HeLa cells; test: Effect on location and morphology of the mitochondria (MitoTracker staining); assay type: cell-based, Human; conditions: 2 h of treatment at 25 μM
Experimental: As for tubulin staining, the cells are grown on glass coverslips and incubated at 37° C. with 5% CO2. Three days after seeding, MitoTracker® Red CMXRos (Molecular Probes, Invitrogen) is added to the culture medium in order to reach a final concentration of 250 nM. The cells are then incubated for 30 minutes at 37° C. with 5% CO2. This marker passively diffuses through the plasma membrane and accumulates into the active mitochondria. After elimination of the medium, the cells are washed with warm medium then fixed by addition of a solution of PBS/3.7% formaldehyde for 30 minutes at 37° C. The cells are rinsed with PBS, then can be permeabilized with a solution of PBS/0.2% Triton X100 for 15 minutes at room temperature if other immunofluorescence staining are needed.

T1 sequence (P53667 whole entry): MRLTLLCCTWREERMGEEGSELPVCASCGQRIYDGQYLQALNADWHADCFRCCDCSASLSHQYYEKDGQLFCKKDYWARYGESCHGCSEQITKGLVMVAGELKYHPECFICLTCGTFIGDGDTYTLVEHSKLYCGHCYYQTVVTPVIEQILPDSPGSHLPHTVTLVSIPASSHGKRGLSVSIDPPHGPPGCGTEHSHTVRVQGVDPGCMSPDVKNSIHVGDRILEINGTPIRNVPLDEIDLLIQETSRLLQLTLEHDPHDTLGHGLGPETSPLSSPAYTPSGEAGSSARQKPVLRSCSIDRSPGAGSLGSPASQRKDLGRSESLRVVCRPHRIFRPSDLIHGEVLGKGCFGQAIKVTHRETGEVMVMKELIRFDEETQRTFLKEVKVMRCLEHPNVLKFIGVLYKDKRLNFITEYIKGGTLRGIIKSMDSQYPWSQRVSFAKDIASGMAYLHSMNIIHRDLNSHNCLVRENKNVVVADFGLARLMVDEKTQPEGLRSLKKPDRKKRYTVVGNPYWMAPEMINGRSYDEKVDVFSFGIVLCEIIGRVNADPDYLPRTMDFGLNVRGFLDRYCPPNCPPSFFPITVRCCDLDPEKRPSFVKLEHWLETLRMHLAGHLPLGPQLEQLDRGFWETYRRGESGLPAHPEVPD

Cc1c2cc[nH]c(=O)c2c(C)c2c1[nH]c1ccc(OC(=O)c3ccccc3)cc12 [Compound 1, 9-benzoyloxy-5,11-dimethyl-2H,6H-pyrido[4,3-b]carbazol-1-one]
IC50 (786-O cells): 55.1 µM | Inhibition mechanism on LIMK1 (recombinant human LIMK1; 70 nM and 280 nM compound): ATP competitor | Ki (recombinant human LIMK1; ATP competition): ~0.06 µM | Assembly of purified tubulin in vitro (purified tubulin): No assembly is observed | Mitochondrial phenotype of sodium azide type [1]: does not induce the mitochondrial phenotype
